The results in this text go back to patent US10259777B2, “(E)-3-(3,4-dihydroxyphenyl)-N-(prop-2-yn-1-yl)acrylamide for treatment of neurodegenerative diseases” (THE UNIVERSITY OF HONG KONG, priority 2015, dated 2019).

For assay [1], the system named is Nrf2. The experiment in a line: Nrf2 translocation into cell nuclei, Western blot and immunostaining. The format is cell-based, rat. The protocol:
Direct modification of Keap1 caused the dissociation of Nrf2-Keap1 complex. Based on Western blot analysis of the nuclear proteins and immunostaining of intracellular Nrf2, PACA induced the translocation of Nrf2 into the cell nuclei in a concentration-dependent manner. (A) Western blot analysis of cytosolic and nuclear Nrf2. Following PACA treatment, the cytosolic and nuclear proteins were isolated and analyzed by Western blotting for Nrf2 expression. GAPDH and lamin b were analyzed as the control of protein loading. (B) Immunostaining of the intracellular Nrf2. Following PACA treatment, the cells were probed with Nrf2 antibody, and subsequently visualized with […] secondary antibody. […] The images were captured under a fluorescence microscope. […]
Direct modification of Keap1 caused the dissociation of Nrf2-Keap1 complex. […] For Western blot analysis, the cellular proteins were separated into the cytosolic and nuclear fractions, and analyzed by Western blotting with Nrf2 antibodies. GAPDH was used as the control of protein loading, whereas Lamin B was detected as the nuclear biomarker. […] For immunostaining of the intracellular Nrf2, on the other hand, PC12 cells were sequentially probed with rabbit anti-Nrf2 antibody and detected by Alexa Fluor 594-conjugated goat anti-rabbit IgG antibodies PACA. The images were captured under a Zeiss fluorescence microscope.
A general note: In western blotting, separated proteins are transferred to a membrane and probed.

The subject of assay [2] is β3-tubulin, MAP2 and GAP-43. The experiment in a line: Western blot of neuronal biomarkers in PC12 cells. The format is cell-based, rat. The following applies: PACA and NGF, alone or in combination. The protocol:
The neuritogenic potential of PACA was verified by the induction of the main neuronal biomarkers (i.g., β3-tubulin, MAP-2 and GAP43). (A) Representative images for the potentiation of NGF-induced neurite outgrowth in PC12 cells by PACA. PC12 cells were treated with NGF (2 ng/ml) and PACA, alone or in combination. The cells were stained with neurite outgrowth staining kit and imaged under a fluorescence microscope. (B) Quantification of neurite outgrowth in Panel A. Following the staining of neurites, the cells bearing neurites longer than 20 μm were counted under a fluorescence microscope. **, p<0.01 (sample vs NGF alone). (C) Western blot analysis of neuronal biomarkers. The cells were treated with NGF and PACA, alone or in combination, whereas the control cells were treated with vehicle for 72 hours. The cellular proteins were extracted and detected by Western blot analysis for the expression of neuron marker. GAPDH was detected as the control of protein loading.
The neuritogenic activity of PACA was evaluated in rat dopaminergic PC12 cells. […] The cells were stained by a neurite outgrowth kit, and subsequently analyzed for neurites (>20 μm) under a fluorescence microscope. […] Following the treatment with PACA and NGF, alone or in combination, PC12 cells were analyzed by Western blotting for the expression of neuronal biomarkers (i.g., β3-tubulin, MAP2 and GAP-43).

Assay [3] concerns PC12 cells. The assay can be described thus: Mitochondrial membrane integrity against 6-OHDA, JC-1 probe. The assay is classed as cell-based, rat. The following applies: 6-OHDA with PACA 5, 10, 20 and 50 μM. The method, then: PC12 cells were treated with 6-OHDA alone or in combination with PACA for 6 hours and subsequently stained with JC-1. The images were captured under a fluorescence microscope.
To investigate the neuroprotective mechanisms of PACA, PC12 cells were treated with 6-OHDA alone or in combination with PACA at the concentrations of 5, 10, 20 and 50 μM. At the end of treatment, the protection of PACA on the mitochondrial membrane integrity was examined by using a cell permeable fluorescent probe 5,5′,6,6′-tetrachloro-1,1′,3,3′-tetraethyl-benzimidazol-carbocyanine iodide (JC-1). 6-OHDA deadly disrupted the mitochondrial membrane integrity as indicated by the leakage of JC-1 into the cytosol.

In assay [4] the test system is mouse model of Parkinson's disease. The assay can be described thus: MPTP-induced motor dysfunctions, rotarod and pole test. The assay is classed as in vivo, mice. The following applies: PACA 15 mg/kg p.o. and MPTP 25 mg/kg i.p. daily for seven days, rotarod and pole test at day-8. The method, then: FIG. 11. In vivo Effect of PACA on MPTP-induced motor dysfunctions in mice. (A) Study design. (B) Rotarod test. Mice were placed on horizontal drums (30 mm in diameter), rotating at a progressively increasing speed, from 4 to 32 rpm over a 5-min period. The time that each animal stayed on the rod before falling was measured. (C) Pole test. Mice were placed with facing head-up on the top of the 50 cm long metal rod (1 cm diameter). Total time for each animal to reach the base of the pole was recorded. Each mouse was tested for three times. The data were presented as Mean±SEM and analyzed by one-way ANOVA with post-hoc Dunnett test. *p<0.05; **, p<0.01.
The in vivo neuroprotective effect of PACA was evaluated in a mouse model of Parkinson's disease. Nineteen mice were randomly divided into three groups: control (n=5), receiving vehicle administrations; MPTP (n=7), receiving i.p. injection of MPTP (25 mg/kg) every afternoon for seven days; MPTP+PACA (n=7), receiving p.o administration of PACA (15 mg/kg) every morning and i.p. injection of MPTP (25 mg/kg) every afternoon for seven days. At day-8, the motor functions of mice were assessed by rotarod performance test and pole test.

For assay [5], the system named is PC12 cells. The experiment in a line: 6-OHDA-induced superoxide production, DHE staining. The assay is classed as cell-based, rat. Particulars: 6-OHDA with PACA 5, 10, 20 and 50 μM. The method, then: After the treatment with 6-OHDA alone or in combination with PACA at different concentrations, PC12 cells were stained with a fluorescent probe dihydroethidium (DHE) for the production of superoxide anion (A & B) and another fluorescent probe DAF-FM Diacetate for the production of nitric oxide ([…]), respectively. (A) Representative images of DHE-stained cells. 6-OHDA, 200 μM; PACA, 50 (B) PACA inhibited 6-OHDA-induced formation of superoxide ions. PC12 cells were treated with 6-OHDA alone or in combination with PACA for 6 h and subsequently stained with a probe DHE. The images were captured under a fluorescence microscope. The fluorescence was determined by ImageJ software. (C) Representative images of DAF-FM DA-stained cells. 6-OHDA, 200 μM; PACA, 50 μM. (D) PACA inhibited 6-OHDA-induced NO production. PC12 cells were treated with 6-OHDA alone or in combination with PACA for 6 h and subsequently stained with a probe DAF-FM DA. The images were captured under a fluorescence microscope. The fluorescence was determined by ImageJ software.
PC12 cells were treated with 6-OHDA alone or in combination with PACA at the concentrations of 5, 10, 20 and 50 μM. At the end of treatment, PC12 cells were then stained with a fluorescent probe dihydroethidium (DHE) for the production of superoxide anion and another fluorescent probe DAF-FM Diacetate for the production of nitric oxide, respectively.

As for `C#CCNC(=O)/C=C/c1ccc(O)c(O)c1` [PACA, (E)-3-(3,4-dihydroxyphenyl)-N-(prop-2-yn-1-yl)acrylamide], the “levels of nuclear Nrf2” value in assay [1] (PACA at different concentrations, Western blot of nuclear fraction) is “significantly increased the levels of nuclear Nrf2 in a concentration-dependent manner”. For the same compound, the “intracellular Nrf2 localization by immunostaining” value in assay [1] (PC12 cells, anti-Nrf2 immunostaining) was “promoted the accumulation of Nrf2 in the cell nucleus”. In addition, in assay [2], the “induction of neuronal markers β3-tubulin, MAP2 and GAP-43” value was “enhanced the neuritogenic activity of NGF in a concentration-dependent manner”. Further, the “mitochondrial membrane integrity against 6-OHDA” value in assay [3] is given as “maintained the mitochondrial membrane integrity in a concentration-dependent manner”. Moreover, in assay [4], the “protection against MPTP-induced motor dysfunctions” value is recorded as “effectively protected animals against MPTP-induced motor dysfunctions”. Further, the “6-OHDA-induced formation of superoxide ions” value in assay [5] is “significantly attenuated”.
